Source: patent US20100179095A1, “USE OF FOLATES FOR PRODUCING A PREPARATION SUITABLE FOR PREVENTING AND TREATING INFLAMMATION AND DISEASES ASSOCIATED WITH INFLAMMATION, ESPECIALLY FOR INFLUENCING THE INFLAMMATION MARKERS CRP AND SAA” (priority 2002, published 2010)
Like-named read-outs stand apart in the source and are kept apart here.

Legend:
[1] = tested on: serum amyloid A protein (SAA); test: Clinical study in haemodialysis patients: plasma SAA (immuno-nephelometry, N Latex SAA); format: in vivo, human; settings: for SAA MW (mean) / SAA Median: plasma, haemodialysis patients
From the text: (§1) For the individual patient, the values before therapy were compared, pair-wise, with those after 3 and 6 weeks of therapy.

[2] = tested on: C-reactive protein (CRP); test: Clinical study in haemodialysis patients: plasma CRP (immuno-nephelometry, N High Sensitivity CRP); format: in vivo, human; settings: for CRP Median / CRP MW (mean): plasma, haemodialysis patients
From the text: as §1

[3] = tested on: homocysteine (total) (Hcys); test: Clinical study in haemodialysis patients: plasma homocysteine (total); format: in vivo, human
Protocol: For the patients for whom all the measured values could be ascertained completely at any time, a “matched pair” analysis was performed in addition. For the individual patient, the values before therapy were compared, pair-wise, with those after 3 and 6 weeks of therapy.

[4] = tested on: inflammation markers CRP and SAA; settings: haemodialysis patients, 6 weeks of folate therapy
From the text: Clinical data were obtained via the prospective, randomised double blind study described below.
141 patients with terminal renal insufficiency, who were being treated with chronic haemodialysis on 3 days each week, and who were between 24 and 90 years old, were divided randomly into 4 therapy groups according to the sex of the patient and the presence or absence of a C677T point mutation on the gene for methylene tetrahydrofolate reductase. Randomisation based on the methylene tetrahydrofolate reductase mutation was effected in order to prevent an imbalance occurring within the individual therapy groups with regard to enzyme activity and thus with regard to folic acid metabolism also. […]
The first blood sample in the study was taken before the commencement of the administration of additional vitamins. […] The following measured quantities were each determined from plasma samples from the 3 blood samples taken: • homocysteine (total) (Hcys) • total folate (Fol) • vitamin B12 (B12) • vitamin B6 (B6) • neopterin (NEOP) • creatinine (Krea) • LDL- and HDL-cholesterol (HDL-Choi, LDL-Chol) • triglyceride (TG) • C-reactive protein (CRP) • amyloid A protein (SAA) […]
CRP and SAA were both measured by means of immuno-nephelometry and tests supplied by DadeBehring (N High Sensitivity CRP and N Latex SAA assays).

[5] = 3 w vs 6 w, value after 3 weeks vs value after 6 weeks
[6] = BL vs 3 w, initial value vs value after 3 weeks
[7] = BL vs 6 w, initial value vs value after 6 weeks
[8] = BL baseline before folate therapy
[9] = BL baseline before folate therapy, basic vitamin preparation in all
[10] = after 3 weeks (3 w) of therapy, 15 mg FTHF or MTHF, 7.5 mg PGA per day plus basic vitamin preparation
[11] = after 6 weeks (6 w) of therapy, 15 mg FTHF or MTHF, 7.5 mg PGA per day plus basic vitamin preparation

Structure (SMILES)	SAA matched pair analysis, significance of difference [1, 5]	SAA matched pair analysis, significance of difference [1, 6]	SAA matched pair analysis, significance of difference [1, 7]	SAA MW (mean) [1, 8] [mg/L]	SAA Median [1, 8] [mg/L]	SAA MW (mean) ([1]; after 3 weeks (3 w) of therapy) [mg/L]	SAA Median ([1]; after 3 weeks (3 w) of therapy) [mg/L]	SAA MW (mean) ([1]; after 6 weeks (6 w) of therapy) [mg/L]	SAA Median ([1]; after 6 weeks (6 w) of therapy) [mg/L]	CRP matched pair analysis, significance of difference [2, 5]	CRP matched pair analysis, significance of difference [2, 6]	CRP matched pair analysis, significance of difference [2, 7]	CRP Median [2, 8] [mg/L]	CRP MW (mean) [2, 9] [mg/L]	CRP Median ([2]; after 3 weeks (3 w) of therapy) [mg/L]	CRP MW (mean) [2, 10] [mg/L]	CRP Median ([2]; after 6 weeks (6 w) of therapy) [mg/L]	CRP MW (mean) [2, 11] [mg/L]	Hcys matched pair analysis, significance of difference [3, 5]	Hcys matched pair analysis, significance of difference [3, 6]	also measured
CN1c2c(nc(N)[nH]c2=O)NC[C@H]1CNc1ccc(C(=O)N[C@@H](CCC(=O)O)C(=O)O)cc1 (mixture of isomers) [MTHF, 5-methyl-(6R,S)-tetrahydrofolic acid]	Ø	Ø	Ø	34	11	19	10	13	9	* (p < 0.05)	* (p < 0.05)	** (p < 0.01)	11	19	8	11	7	9	Ø	Ø	Hcys matched pair analysis, significance of difference [3, 7]: * (p < 0.05); effect on inflammation markers CRP and SAA (acute phase response), in words [4]: reduce the acute phase response; effect on inflammation markers CRP and SAA (acute phase response), in words ([4]; listed as 5-methyl-(6R,S)-tetahydrofolic acid): most pronounced decrease in inflammation markers
Nc1nc2ncc(CNc3ccc(C(=O)N[C@@H](CCC(=O)O)C(=O)O)cc3)nc2c(=O)[nH]1 [PGA, folic acid]	* (p < 0.05)	Ø	Ø	11	7	12	6	13	10	Ø	Ø	Ø	7	10	8	10	6	9	Ø	* (p < 0.05)	Hcys matched pair analysis, significance of difference [3, 7]: * (p < 0.05)
Nc1nc2c(c(=O)[nH]1)N(C=O)[C@H](CNc1ccc(C(=O)N[C@@H](CCC(=O)O)C(=O)O)cc1)CN2 (mixture of isomers) [FTHF, 5-formyl-(6R,S)-tetrahydrofolic acid]	* (p < 0.05)	* (p < 0.05)	Ø	28	6	8	4	35	6	Ø	* (p < 0.05)	Ø	9	16	5	9	6	18	Ø	* (p < 0.05)	Hcys matched pair analysis, significance of difference [3, 7]: ** (p < 0.01)
